One data set concerns MKN-45. Nature of the data set: Inhibition of MKN-45 proliferation (MTT). In kind it is cell-based, human. Conditions: Homo sapiens, MKN-45 proliferation; for inhibition at 0.1 µM: 100 nM, read-out: MKN45 % inhibition @ 100 nM; for GI50: read-out: MKN45 GI50. In a few lines: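 High-Met human gastric adenocarcinoma MKN-45 cells plated on day 1 and exposed to compound from day 2. Viability measured by MTT dye reduction on day 5; output given as % inhibition at 100 nM and GI50.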

For data set [1], the target named is T1, human recombinant Met kinase (Homo sapiens, UniProt P08581).
T1 construct: purchased Cell Signalling Technology, Beverly, Mass
T1 sequence (P08581 25-1390): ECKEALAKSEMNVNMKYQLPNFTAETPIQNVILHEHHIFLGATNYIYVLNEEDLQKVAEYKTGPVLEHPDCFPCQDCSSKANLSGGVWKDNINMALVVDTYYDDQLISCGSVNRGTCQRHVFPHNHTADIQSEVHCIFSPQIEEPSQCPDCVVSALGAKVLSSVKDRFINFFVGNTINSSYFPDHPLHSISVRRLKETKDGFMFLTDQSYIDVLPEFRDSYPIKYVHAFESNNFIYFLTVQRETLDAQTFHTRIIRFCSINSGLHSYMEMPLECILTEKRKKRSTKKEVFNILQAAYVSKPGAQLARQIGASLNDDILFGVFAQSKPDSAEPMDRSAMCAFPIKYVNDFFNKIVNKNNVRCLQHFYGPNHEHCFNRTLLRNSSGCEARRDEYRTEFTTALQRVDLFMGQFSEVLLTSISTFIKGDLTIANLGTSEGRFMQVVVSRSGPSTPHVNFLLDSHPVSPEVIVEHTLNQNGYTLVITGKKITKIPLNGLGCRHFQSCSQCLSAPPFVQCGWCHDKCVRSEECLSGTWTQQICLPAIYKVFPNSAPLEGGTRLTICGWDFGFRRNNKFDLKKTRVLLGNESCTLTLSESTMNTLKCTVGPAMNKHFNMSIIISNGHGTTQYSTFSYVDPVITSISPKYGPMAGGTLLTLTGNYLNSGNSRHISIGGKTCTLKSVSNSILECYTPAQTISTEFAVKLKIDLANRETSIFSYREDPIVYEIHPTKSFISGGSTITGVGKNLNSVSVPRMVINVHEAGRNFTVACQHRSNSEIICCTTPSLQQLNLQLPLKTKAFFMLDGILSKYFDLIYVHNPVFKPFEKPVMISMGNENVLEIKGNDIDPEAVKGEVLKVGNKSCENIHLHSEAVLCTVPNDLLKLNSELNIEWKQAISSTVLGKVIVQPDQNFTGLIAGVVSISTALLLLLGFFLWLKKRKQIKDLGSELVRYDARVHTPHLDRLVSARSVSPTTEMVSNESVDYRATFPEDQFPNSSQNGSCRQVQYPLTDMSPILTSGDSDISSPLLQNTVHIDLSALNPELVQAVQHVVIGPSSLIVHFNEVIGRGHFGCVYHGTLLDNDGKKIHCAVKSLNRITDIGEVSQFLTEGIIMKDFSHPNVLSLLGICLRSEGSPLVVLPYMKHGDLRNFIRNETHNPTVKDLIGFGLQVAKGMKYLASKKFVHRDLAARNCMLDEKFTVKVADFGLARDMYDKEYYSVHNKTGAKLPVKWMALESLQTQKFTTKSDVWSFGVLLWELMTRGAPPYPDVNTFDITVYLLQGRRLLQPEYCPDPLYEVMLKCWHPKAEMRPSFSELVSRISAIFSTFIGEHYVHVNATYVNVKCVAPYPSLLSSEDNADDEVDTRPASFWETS
Nature of the data set: Colorimetric determination of c-Met kinase activity (HTScan Met Kinase Assay Kit). Type of data set: biochemical. Conditions: for inhibition at 0.1 µM: 100 nM (cells without *), read-out: c-Met Enzyme % inhibition @ 100 nM; for inhibition: cells marked *: tested @ 300 nM, read-out: c-Met Enzyme % inhibition. Put shortly: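 Human recombinant Met kinase was preincubated with compound for 5 min at room temperature, then reacted with ATP and biotinylated peptide for 30 min; EDTA stop. Phosphopeptide captured on streptavidin and detected with phospho-tyrosine mAb and europium anti-mouse IgG by time-resolved fluorescence (340/615 nm). Reported as % inhibition or IC50.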

For data set [2], the target named is T1, human recombinant Met kinase. The description is as above. In kind it is biochemical. Conditions: read-out: c-Met Enzyme IC50.

As usually defined, the inhibition is the percentage by which the read-out fell short of the control. For orientation: GI50 means the concentration at which growth is held to half of that of the control. The term IC50 denotes the midpoint of a concentration-inhibition curve. A word on the melting point: it is the temperature, or range, at which the solid turns liquid.

Like-named read-outs stand apart in the source and are kept apart here. Bounds are passed on as bounds.

Turning to `O=C(NOCCO)c1ccc(-c2ccc3nnn(Cc4ccc5ncccc5c4)c3n2)cc1F` [Example 10, 2-fluoro-N-(2-hydroxyethoxy)-4-(3-(quinolin-6-ylmethyl)-3H-[1,2,3]triazolo[4,5-b]pyridin-5-yl)benzamide], the melting point lay within 200 to 203 °C. Further, in the data set with MKN-45 (MKN-45, Table 4A), the inhibition at 0.1 µM is 75 to 100% and the GI50 is 25 to 50 nM. For the same compound, in data set [1] (Table 4A), the inhibition at 0.1 µM is 75 to 100%. In addition, in data set [2] (Table 4A), the IC50 was 25 to 50 nM.
With `CC(=O)OCCONC(=O)c1ccc(-c2ccc3nnn(Cc4ccc5ncccc5c4)c3n2)cc1Cl` [Example 11, 2-(2-chloro-4-(3-(quinolin-6-ylmethyl)-3H-[1,2,3]triazolo[4,5-b]pyridin-5-yl)benzamidooxy)ethyl acetate], the melting point was in the range of 168 to 170 °C. Further, in data set [1] (Table 4A), the inhibition at 0.1 µM was 75 to 100%.
For `C[C@H](N)C(=O)OCCONC(=O)c1ccc(-c2ccc3nnn(Cc4ccc5ncccc5c4)c3n2)cc1Cl` [Example 13, (S)-2-(2-chloro-4-(3-(quinolin-6-ylmethyl)-3H-[1,2,3]triazolo[4,5-b]pyridin-5-yl)benzamidooxy)ethyl 2-aminopropanoate], in that order: 175 to 177 °C and 75 to 100%.
For `CC(C)(C)C(=O)OCCONC(=O)c1ccc(-c2ccc3nnn(Cc4ccc5ncccc5c4)c3n2)cc1Cl` [Example 14, 2-(2-chloro-4-(3-(quinolin-6-ylmethyl)-3H-[1,2,3]triazolo[4,5-b]pyridin-5-yl)benzamidooxy)ethyl pivalate], in that order: 130 to 133 °C and 75 to 100%.
Consider `CC(C)C(=O)OCCONC(=O)c1ccc(-c2ccc3nnn(Cc4ccc5ncccc5c4)c3n2)cc1Cl` [Example 15, 2-(2-chloro-4-(3-(quinolin-6-ylmethyl)-3H-[1,2,3]triazolo[4,5-b]pyridin-5-yl)benzamidooxy)ethyl isobutyrate], for which the melting point fell in the range of 115 to 118 °C. Also, the inhibition at 0.1 µM in data set [1] (Table 4A) lay within 75 to 100%.
`O=C(CNC(=O)c1ccccc1)OCCONC(=O)c1ccc(-c2ccc3nnn(Cc4ccc5ncccc5c4)c3n2)cc1Cl` [Example 16, 2-(2-chloro-4-(3-(quinolin-6-ylmethyl)-3H-[1,2,3]triazolo[4,5-b]pyridin-5-yl)benzamidooxy)ethyl 2-benzamidoacetate] gave a melting point of 110 to 112 °C. For the same compound, in data set [1] (Table 4A), the inhibition at 0.1 µM is 75 to 100%.
Taken in the same sequence, the figures for `Cc1ccc2cc(Cn3nnc4ccc(-c5ccc(C(=O)NOCCO)c(Cl)c5)nc43)ccc2n1` [Example 17, 2-chloro-N-(2-hydroxyethoxy)-4-(3-((2-methylquinolin-6-yl)methyl)-3H-[1,2,3]triazolo[4,5-b]pyridin-5-yl) benzamide] were 219 to 222 °C and less than 25%.
Compound `O=C(NOCCO)c1ccc(-c2ccc3nnn(Cc4ccc5ncsc5c4)c3n2)cc1Cl` [Example 18, 4-(3-(benzo[d]thiazol-6-ylmethyl)-3H-[1,2,3]triazolo[4,5-b]pyridin-5-yl)-2-chloro-N-(2-hydroxyethoxy)benzamide] showed a melting point of 194 to 196 °C. Besides, in the data set with MKN-45 (MKN-45, Table 4A), the inhibition at 0.1 µM is 25 to 50% and the concentration for 50% growth inhibition (GI50) lay in the range of 50 to 100 nM. Also, the inhibition at 0.1 µM in data set [1] (Table 4A) was 50 to 75%. Further, in data set [2] (Table 4A), the IC50 fell in the range of 25 to 50 nM.
Take `CC(C)(CO)ONC(=O)c1ccc(-c2ccc3nnn(Cc4ccc5ncccc5c4)c3n2)cc1Cl` [Example 40, 2-chloro-N-(1-hydroxy-2-methylpropan-2-yloxy)-4-(3-(quinolin-6-ylmethyl)-3H-[1,2,3]triazolo[4,5-b]pyridin-5-yl)benzamide]: the melting point lay in the range of 148 to 150 °C. In addition, the inhibition at 0.1 µM in data set [1] (Table 4A) lay within 75 to 100%.
As for `Cc1cc(-c2ccc3nnn(Cc4ccc5c(ccc[n+]5[O-])c4)c3n2)ccc1C(=O)NOCC(C)(C)O` [Example 41, N-(2-Hydroxy-2-methyl-propoxy)-2-methyl-4-[3-(1-oxy-quinolin-6-ylmethyl)-3H-[1,2,3]triazolo[4,5-b]pyridin-5-yl]-benzamide], the melting point was in the range of 160 to 162 °C.
In the case of `C/C(=N\NC(N)=S)c1ccc2nnn(Cc3cc4cccnc4cc3F)c2n1` [Example 57, 2-(1-(3-((7-fluoroquinolin-6-yl)methyl)-3H-[1,2,3]triazolo[4,5-b]pyridin-5-yl)ethylidene)hydrazinecarbothioamide], in the data set on MKN-45 (MKN-45, Table 4A), the inhibition at 0.1 µM lay within 50 to 75% and the concentration for 50% growth inhibition (GI50) lay within 25 to 50 nM. In addition, the inhibition in data set [1] (Table 4A) was 75 to 100%. For the same compound, the IC50 in data set [2] (Table 4A) lay in the range of 25 to 50 nM.
In the case of `C/C(=N\OCCO)c1ccc2nnn(Cc3cc4cccnc4cc3F)c2n1` [Example 61, 1-(3-((7-fluoroquinolin-6-yl)methyl)-3H-[1,2,3]triazolo[4,5-b]pyridin-5-yl) ethanone O-2-hydroxyethyl oxime], in the data set on MKN-45 (MKN-45, Table 4A), the GI50 fell in the range of 50 to 100 nM. In addition, the inhibition in data set [1] (Table 4A) was 75 to 100%. Besides, in data set [2] (Table 4A), the IC50 was in the range of 25 to 50 nM.
Regarding `C/C(=N\OCCN)c1ccc2nnn(Cc3ccc4ncccc4c3)c2n1` [Example 63, 1-(3-(quinolin-6-ylmethyl)-3H-[1,2,3]triazolo[4,5-b]pyridin-5-yl)ethanone O-2-aminoethyl oxime], in the data set with MKN-45 (MKN-45, Table 4A), the inhibition at 0.1 µM is less than 25% and the GI50 lay within 250 to 1000 nM. The inhibition in data set [1] (Table 4A) fell in the range of 75 to 100%. Also, in data set [2] (Table 4A), the concentration for half-maximal inhibition (IC50) was in the range of 25 to 50 nM.
For the compound `CN(C)CCNC(=O)c1c(F)cc(-c2ccc3ncn(Cc4ccc5ncccc5c4)c3n2)cc1F` [Example 104, N-(2-(dimethylamino)ethyl)-2,6-difluoro-4-(3-(quinolin-6-ylmethyl)-3H-imidazo[4,5-b]pyridin-5-yl) benzamide], in the data set on MKN-45 (MKN-45, Table 4B), the inhibition at 0.1 µM is less than 25%. Moreover, the inhibition in data set [1] (Table 4B) was in the range of 50 to 75%. Moreover, the concentration for half-maximal inhibition (IC50) in data set [2] (Table 4B) was 100 to 250 nM.
`C[C@@H](O)CNC(=O)c1ccc(-c2ccc3ncn(Cc4ccc5ncccc5c4)c3n2)cc1F` [Example 109, (R)-2-fluoro-N-(2-hydroxypropyl)-4-(3-(quinolin-6-ylmethyl)-3H-imidazo[4,5-b]pyridin-5-yl)benzamide] gave a melting point of 151 to 158 °C. Moreover, the inhibition at 0.1 µM in data set [1] (Table 4B) is 75 to 100%.
Consider `C[C@H](O)CNC(=O)c1ccc(-c2ccc3ncn(Cc4ccc5ncccc5c4)c3n2)cc1F` [Example 110, (S)-2-fluoro-N-(2-hydroxypropyl)-4-(3-(quinolin-6-ylmethyl)-3H-imidazo[4,5-b]pyridin-5-yl)benzamide], for which the melting point fell in the range of 166 to 169 °C. The inhibition at 0.1 µM in data set [1] (Table 4B) was 75 to 100%.
Regarding `NC(=O)c1ccc(-c2ccc3ncn(Cc4ccc5ncccc5c4)c3n2)cc1Cl` [Example 1008, 2-Chloro-4-(3-(quinolin-6-ylmethyl)-3H-imidazo[4,5-b]pyridin-5-yl)benzamide], in the data set on MKN-45 (MKN-45, Table 4C), the inhibition at 0.1 µM is 25 to 50% and the GI50 was in the range of 100 to 250 nM. In addition, the inhibition in data set [1] (Table 4C) was in the range of 75 to 100%. In addition, the IC50 in data set [2] (Table 4C) lay in the range of 50 to 100 nM.
For `NC(=O)c1ccc(-c2ccc3ncn(Cc4c(F)cc5ncccc5c4F)c3n2)cc1Cl` [Example 1023, 2-chloro-4-(3-((5,7-difluoroquinolin-6-yl)methyl)-3H-imidazo[4,5-b]pyridin-5-yl)benzamide], in that order: 50 to 75%, less than 25 nM, 75 to 100% and less than 25 nM.
For `Cc1cc(-c2ccc3ncn(Cc4cc5cccnc5cc4F)c3n2)ccc1C(N)=O` [Example 1025, 4-[3-(7-Fluoro-quinolin-6-ylmethyl)-3H-imidazo[4,5-b]pyridin-5-yl]-2-methyl-benzamide], the GI50 with MKN-45 (MKN-45, Table 4C) lay within 50 to 100 nM. Moreover, the inhibition at 0.1 µM in data set [1] (Table 4C) lay within 75 to 100%. The half-inhibitory concentration (IC50) in data set [2] (Table 4C) was less than 25 nM.
Take `NC(=O)c1ccc(-c2ccc3ncn(Cc4cc5cccnc5cc4F)c3n2)cc1C(F)(F)F` [Example 1026, 4-[3-(7-Fluoro-quinolin-6-ylmethyl)-3H-imidazo[4,5-b]pyridin-5-yl]-2-trifluoromethyl-benzamide]: the melting point was 239 to 241 °C. Further, in data set [1] (Table 4C), the inhibition at 0.1 µM lay within 25 to 50%.
The compound `Cc1cc(-c2ccc3ncn(Cc4c(F)cc5ncccc5c4F)c3n2)ccc1C(N)=O` [Example 1027, 4-[3-(5,7-Difluoro-quinolin-6-ylmethyl)-3H-imidazo[4,5-b]pyridin-5-yl]-2-methyl-benzamide] gave a melting point of 158 to 160 °C. The inhibition at 0.1 µM with MKN-45 (MKN-45, Table 4C) was in the range of 75 to 100%. Also, the inhibition at 0.1 µM in data set [1] (Table 4C) lay within 75 to 100%.
The compound `CNC(=O)c1ccc(-c2ccc3ncn(Cc4ccc5ncccc5c4)c3n2)cc1C` [Example 1030, 2,N-Dimethyl-4-(3-quinolin-6-ylmethyl-3H-imidazo[4,5-b]pyridin-5-yl)-benzamide] gave a melting point of 118 to 120 °C. Besides, the inhibition at 0.1 µM in data set [1] (Table 4C) was less than 25%.
For `CNC(=O)c1ccc(-c2ccc3ncn(Cc4ccc5ncccc5c4)c3n2)cn1` [Example 1031, 5-(3-Quinolin-6-ylmethyl-3H-imidazo[4,5-b]pyridin-5-yl)-pyridine-2-carboxylic acid methylamide], in that order: 219 to 221 °C and less than 25%.

(Values after US9815831B2, “3,5-disubstituted-3H-imidazo[4,5-B]pyridine and 3,5-disubstituted-3H-[1,2,3]triazolo[4,5-B] pyridine compounds as modulators of c-Met protein kinases” (Rhizen Pharmaceuticals SA, priority 2012, dated 2017).)
